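Grown in 96-well plates, cells were treated for 48 hours with each compound at five concentrations. Insufficient inhibition: endpoint recorded as highest concentration tested. At the TGI there is no net growth.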
Legend:
Assay in all cases: NCI-60 cell line screen, 48 h
[1] = test system: NCI-H522 lung
[2] = test system: SF-268 CNS
[3] = test system: DMS 114 small cell lung
[4] = test system: SF-295 CNS
[5] = test system: SNB-19 CNS
[6] = test system: NCI-H226 lung
[7] = test system: KM12 colon
[8] = test system: M19-MEL melanoma
[9] = test system: CCRF-CEM leukemia
[10] = test system: UACC-257 melanoma
[11] = test system: HOP-62 NSCLC
[12] = test system: M14 melanoma
[13] = test system: DMS 273 small cell lung
[14] = test system: NCI-H23 lung
[15] = test system: TK-10 renal
[16] = test system: LOX IMVI melanoma
[17] = test system: ACHN renal
[18] = test system: HOP-92 NSCLC
[19] = test system: OVCAR-4 ovarian
[20] = test system: COLO 205 colon
[21] = test system: MALME-3M melanoma
[22] = test system: OVCAR-5 ovarian
[23] = test system: SF-539 CNS
[24] = test system: 786-0 renal
[25] = test system: HT29 colon
[26] = test system: RPMI-8226 leukemia
[27] = test system: SR leukemia
[28] = test system: SNB-78 CNS
[29] = test system: MOLT-4 leukemia
[30] = test system: DLD-1 colon
[31] = test system: U251 CNS
[32] = test system: SK-OV-3 ovarian
[33] = test system: UO-31 renal
[34] = test system: EKVX NSCLC
[35] = test system: HL-60(TB) leukemia
[36] = test system: SNB-75 CNS
[37] = test system: SW-620 colon
[38] = test system: OVCAR-8 ovarian
[39] = test system: LXFL 529 NSCLC
[40] = test system: KM20L2 colon
[41] = test system: SK-MEL-28 melanoma
[42] = test system: SK-MEL-5 melanoma
[43] = test system: OVCAR-3 ovarian
[44] = test system: HCT-15 colon
[45] = test system: NCI-H460 lung
[46] = test system: A549 NSCLC
[47] = test system: SK-MEL-2 melanoma
[48] = test system: HCT-116 colon
[49] = test system: SN12C renal

CCNc1nnc(CSc2nc(-c3ccccc3)c(-c3ccccc3)[nH]2)s1
TGI [1]: 39.7 µM
TGI [2]: 39.3 µM
TGI [3]: 63.1 µM
TGI [4]: 34.1 µM
TGI [5]: 34 µM
TGI [6]: 35 µM
TGI [7]: 23.9 µM
TGI [8]: 32.1 µM
TGI [9]: 40.3 µM
TGI [10]: 34.9 µM
TGI [11]: 35.7 µM
TGI [12]: 35.7 µM
TGI [13]: 42.9 µM
TGI [14]: 65.3 µM
TGI [15]: 56.5 µM
TGI [16]: 31.1 µM
TGI [17]: 74.6 µM
TGI [18]: 41.9 µM
TGI [19]: > 100 µM
TGI [20]: 51.2 µM
TGI [21]: 48.4 µM
TGI [22]: 39.8 µM
TGI [23]: 33.2 µM
TGI [24]: 56.6 µM
TGI [25]: 37.9 µM
TGI [26]: 54.9 µM
TGI [27]: > 100 µM
TGI [28]: 96.3 µM
TGI [29]: 56.7 µM
TGI [30]: 52.7 µM
TGI [31]: 26.9 µM
TGI [32]: 41.7 µM
TGI [33]: 29.5 µM
TGI [34]: 44.4 µM
TGI [35]: 37 µM
TGI [36]: 82.6 µM
TGI [37]: 44.1 µM
TGI [38]: 30 µM
TGI [39]: 64.8 µM
TGI [40]: 46.1 µM
TGI [41]: 36.1 µM
TGI [42]: 24.1 µM
TGI [43]: 37.1 µM
TGI [44]: 43.8 µM
TGI [45]: 59.2 µM
TGI [46]: 69.5 µM
TGI [47]: 41.9 µM
TGI [48]: 38.8 µM
TGI [49]: 56.5 µM
